Measurements as given in patent US10400285B2, “DDX43 as a biomarker of resistance to MEK1/2 inhibitors” (Memorial Sloan-Kettering Cancer Center, priority 2013, dated 2019).

Test system: Res-Omm1.3 and Res-Mel270 cells
Assay: Cell viability assay (CCK8), MEKi-resistant cells
Type: cell-based
Description: Cells were plated in 96-well plates, and treated with the indicated concentrations of drugs. […] Cell viability is expressed as a percentage of untreated cells.
To explore mechanisms of drug resistance, MEKi-resistant GNAQ-mutant cell lines were generated by exposing the cells to increasing concentrations of selumetinib for at least four weeks and routinely grown in 1 μM selumetinib, without clonal selection. After continuous exposure, the cell lines Res-Omm1.3 and Res-Mel270 became resistant to selumetinib compared to their parental cells Omm1.3 and Mel270 (FIG. 2A, B).

## NC1(c2ccc(-c3nc4ccn5c(=O)[nH]nc5c4cc3-c3ccccc3)cc2)CCC1 [MK2206]
MK2206 with selumetinib, FIG. 6
  sensitivity to AKTi when combined with MEKi: sustained
Increasing concentrations of MK2206, FIG. 6
  cell viability with AKTi compared to the parental lines: Decreased viability

## O=C(NOC[C@H](O)CO)c1ccc(F)c(F)c1Nc1ccc(I)cc1F [PD0325901]
Increasing doses, 4 days, FIG. 2A, B and FIG. 7
  cell viability: resistance to MEK inhibitor compared to parental cells: cross resistance

## Cn1cnc2c(F)c(Nc3ccc(Br)cc3Cl)c(C(=O)NOCCO)cc21 [selumetinib]
Res-Omm1.3 and Res-Mel270 vs parental Omm1.3 and Mel270, cell viability
  IC50 of resistant cells relative to their sensitive counterparts: 10 fold
